# Laboratory results as given in patent publication US8329693B2, “Method for the prevention of thromboembolic disorders” (Orion Corporation, priority 2004, dated 2012).
# “Also recorded” adds a separate entry of the source.
# Tests used:
# [1] = system: Dahl SS rats on high-salt diet; test: Mortality in Dahl salt-sensitive rat stroke model (Experiment 2); format: in vivo; settings: High-Salt diet + Levosimendan 1 mg/kg/day (2 mg/l in drinking water), 7 weeks, n=20; vehicle group 70%
# Experimental: (§1) Effect of levosimendan on the incidence of cerebral strokes in Dahl salt-sensitive rat stroke model was studied using Magnetic Resonance Imaging (MRI) and behavioural tests (Neuroscore and Functional Observational Battery (FOB)).
# (§2) Dahl SS rats were divided into three treatment groups: High-Salt diet+vehicle (n=20), High-Salt diet+Levosimendan 1 mg/kg/day (n=20), and Normal-Salt diet control (n=4). High salt diet contained 7% of NaCl in commercial low salt diet. Feeding with the high-salt diet was started at the age of 6 weeks and continued 7 weeks until the end of the study. Levosimendan was administered via drinking water (2 mg/l of levosimendan in drinking water). The administration was started at the same time as the high-salt diet and continued until the end of the study. The consumption of drinking water and food as well as the body weight and general health of the animals were monitored. MRI was performed once-a-week during the weeks 2-8. FOB and 7-point Neuroscore testing were performed once-a-week during the weeks 1-3 and twice-a-week during weeks the 4-8.
# [2] = system: Dahl SS rats on high-salt diet; test: In vivo T2-weighted MRI of brain lesions, Dahl salt-sensitive rat stroke model; settings: for share of animals with T2-lesion volume 0 mm^3 / share of animals with T2-lesion volume 1-50 mm^3 / share of animals with T2-lesion volume 51-100 mm^3 / share of animals with T2-lesion volume >200 mm^3: in vivo MRI
# Experimental: as §1, §2
# Diffusion and T2-weighted MRI using Varian Inova console interfaced to a 4.7 T horizontal magnet (Magnex Scientific Ltd.) was performed once-a-week on halothane-anesthetized rats. T2-weighted imaging and quantitative diffusion imaging were used to determine lesion size and to characterize plausible ischaemic lesions in Dahl SS rats. Typical lesions were heterogeneous and consisted of several different regions with different MRI characteristics. Hyperintensity in T2-weighted imaging was found in practically all animals with detectable abnormalities. This can be interpreted as oedematous tissue, which is typical for ischaemic tissue and is, in general, detectable starting at ˜12-24 h after occlusion of the feeding vessel. […] At the high magnetic field (4.7 T) used in this study, any ferromagnetic substance causes local disruption in magnetic field homogeneity which destroys the signal in T2-weighted imaging. This is a characteristic MRI feature for hemorrhage as haemoglobin in blood contains Fe. Thus almost all lesions detected in this study can be characterized to be associated with hemorrhage.
# [3] = system: Dahl SS rats on high-salt diet; test: Seven-point Neuroscore test, Dahl salt-sensitive rat stroke model; format: in vivo; settings: throughout the study (weeks 1-8); grade 6 = normal
# Experimental: as §2
# Functional observational battery (FOB) and Neuroscore testing were performed once-a-week during weeks 1-3 and twice-a-week during weeks 4-8.
# A seven-point neuroscore test was used to assess motor and behavioral deficits (modified from Zausinger et al. Brain Res. 863:94-105, 2000). The neurological test was conducted by an investigator blinded to the treatment status of the rats. The seven-point scale was as follows:
# Grade 6: Normal extension of both forelimbs towards the floor when lifted gently by the tail. […]
# [4] = system: salt sensitive rat model; test: Stroke in salt sensitive rat model (summary statements); format: in vivo; settings: preventative treatment
smiles,measurement,setting,value
"CC1CC(=O)NN=C1c1ccc(NN=C(C#N)C#N)cc1 (single isomer, unassigned; (-)) [levosimendan, (−)-enantiomer of [[4-(1,4,5,6-tetrahydro-4-methyl-6-oxo-3-pyridazinyl)phenyl]hydrazono]propanedinitrile]",mortality during the study,[1],5%
same,noticeable T2-weighted MRI changes,"[2]; 6th week of the study, more than 50% of vehicle treated animals had changes",no changes were observed
same,animals with detectable T2-weighted MRI changes,"[2]; at the last MRI measurement, 85% of vehicle treated animals",10%
same,share of animals with T2-lesion volume 0 mm^3,"[2]; week 2, lesion volume class 0 mm^3, levosimendan 1 mg/kg/day in drinking water",95%
same,share of animals with T2-lesion volume 1-50 mm^3,"[2]; week 2, lesion volume class 1-50 mm^3, levosimendan 1 mg/kg/day in drinking water",5%
same,share of animals with T2-lesion volume 51-100 mm^3,"[2]; week 2, lesion volume class 51-100 mm^3, levosimendan 1 mg/kg/day in drinking water",0%
same,share of animals with T2-lesion volume >200 mm^3,"[2]; week 2, lesion volume class >200 mm^3, levosimendan 1 mg/kg/day in drinking water",0%
same,share of animals with T2-lesion volume 0 mm^3,"[2]; week 3, lesion volume class 0 mm^3, levosimendan 1 mg/kg/day in drinking water",100%
same,share of animals with T2-lesion volume 1-50 mm^3,"[2]; week 3, lesion volume class 1-50 mm^3, levosimendan 1 mg/kg/day in drinking water",0%
same,share of animals with T2-lesion volume 51-100 mm^3,"[2]; week 3, lesion volume class 51-100 mm^3, levosimendan 1 mg/kg/day in drinking water",0%
same,share of animals with T2-lesion volume >200 mm^3,"[2]; week 3, lesion volume class >200 mm^3, levosimendan 1 mg/kg/day in drinking water",0%
same,share of animals with T2-lesion volume 0 mm^3,"[2]; week 4, lesion volume class 0 mm^3, levosimendan 1 mg/kg/day in drinking water",95%
same,share of animals with T2-lesion volume 1-50 mm^3,"[2]; week 4, lesion volume class 1-50 mm^3, levosimendan 1 mg/kg/day in drinking water",5%
same,share of animals with T2-lesion volume 51-100 mm^3,"[2]; week 4, lesion volume class 51-100 mm^3, levosimendan 1 mg/kg/day in drinking water",0%
same,share of animals with T2-lesion volume >200 mm^3,"[2]; week 4, lesion volume class >200 mm^3, levosimendan 1 mg/kg/day in drinking water",0%
same,share of animals with T2-lesion volume 0 mm^3,"[2]; week 5, lesion volume class 0 mm^3, levosimendan 1 mg/kg/day in drinking water",100%
same,share of animals with T2-lesion volume 1-50 mm^3,"[2]; week 5, lesion volume class 1-50 mm^3, levosimendan 1 mg/kg/day in drinking water",0%
same,share of animals with T2-lesion volume 51-100 mm^3,"[2]; week 5, lesion volume class 51-100 mm^3, levosimendan 1 mg/kg/day in drinking water",0%
same,share of animals with T2-lesion volume >200 mm^3,"[2]; week 5, lesion volume class >200 mm^3, levosimendan 1 mg/kg/day in drinking water",0%
same,share of animals with T2-lesion volume 0 mm^3,"[2]; week 6, lesion volume class 0 mm^3, levosimendan 1 mg/kg/day in drinking water",100%
same,share of animals with T2-lesion volume 1-50 mm^3,"[2]; week 6, lesion volume class 1-50 mm^3, levosimendan 1 mg/kg/day in drinking water",0%
same,share of animals with T2-lesion volume 51-100 mm^3,"[2]; week 6, lesion volume class 51-100 mm^3, levosimendan 1 mg/kg/day in drinking water",0%
same,share of animals with T2-lesion volume >200 mm^3,"[2]; week 6, lesion volume class >200 mm^3, levosimendan 1 mg/kg/day in drinking water",0%
same,share of animals with T2-lesion volume 0 mm^3,"[2]; week 7, lesion volume class 0 mm^3, levosimendan 1 mg/kg/day in drinking water",90%
same,share of animals with T2-lesion volume 1-50 mm^3,"[2]; week 7, lesion volume class 1-50 mm^3, levosimendan 1 mg/kg/day in drinking water",0%
same,share of animals with T2-lesion volume 51-100 mm^3,"[2]; week 7, lesion volume class 51-100 mm^3, levosimendan 1 mg/kg/day in drinking water",10%
same,share of animals with T2-lesion volume >200 mm^3,"[2]; week 7, lesion volume class >200 mm^3, levosimendan 1 mg/kg/day in drinking water",0%
same,share of animals with T2-lesion volume 0 mm^3,"[2]; week 8, lesion volume class 0 mm^3, levosimendan 1 mg/kg/day in drinking water",89%
same,share of animals with T2-lesion volume 1-50 mm^3,"[2]; week 8, lesion volume class 1-50 mm^3, levosimendan 1 mg/kg/day in drinking water",5%
same,share of animals with T2-lesion volume 51-100 mm^3,"[2]; week 8, lesion volume class 51-100 mm^3, levosimendan 1 mg/kg/day in drinking water",0%
same,share of animals with T2-lesion volume >200 mm^3,"[2]; week 8, lesion volume class >200 mm^3, levosimendan 1 mg/kg/day in drinking water",5%
same,seven-point Neuroscore,[3],scored maximum scores throughout the study
same,"incidence and volume of brain lesions, behavioural disorders and mortality associated with stroke",[4],reduces and/or postpones; also recorded: markedly reduce
